The record followed here is patent US20250108119A1, “NOVEL STEROID PAYLOADS, STEROID LINKERS, ADCs CONTAINING AND USE THEREOF” (IMMUNEXT, INC., priority 2021, published 2025).

The structures appear in SMILES notation.

Series [1] has as its system peritoneal resident macrophages (PRM). The series can be described thus: In vivo treatment/ex vivo PRM activation, TNFα and IL-6 in supernatant. Further details: species or system hVISTA mice.
The subject of series [2] is LPS stimulated human PBMCs. Nature of the series: LPS stimulated human PBMC, IL-1β and IL-6 ELISA. Type of series: cell-based. Summed up: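 Human PBMC (1-2 healthy donors), 150,000 cells/well, treated with test agents at 1,000 nM down to 1 nM or 0.2 nM, in duplicate. LPS at 1 ng/ml added immediately after free payload or 4 h after conjugates; IL-1β and IL-6 in supernatants measured by ELISA.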

The subject of series [3] is human PBMC. The series can be described thus: Identification and quantification of released payload in human PBMC (MS). Type of series: in vitro ADME. Conditions: 4h, second study. The procedure: In all the following experiments, human PBMC, isolated from 1 healthy donor per study, were treated with exemplary anti-VISTA glucocorticoid conjugates according to the invention to allow identification and quantification of the released payload.
In the present experiments, after incubating PBMC with glucocorticoid (GC) antibody drug conjugates (ADC) for 4h, cells were harvested and assessed for both FKBP5 transcription induction via quantitative real time PCR (qPCR) as well as assessed via mass spectrometry (MS) for released payload identification and quantification.
Isolated PBMCs were resuspended in RPMI 1640 containing 10% human AB serum, 10 mM Hepes, 1× Penicillin/Streptomycin/L-Glutamine (assay media).
PBMCs from 1 donor were washed 2× in PBS, and then resuspended at 1×10^7/mL in media. […]
Remaining cells for each treatment were dived into aliquots representing 50 million cells per aliquot (for metabolite quantification only one aliquot per condition was generated). […]
Media was removed from each cell pellet with the media then set aside at −80C until it could be assessed for the concentration of effluxed payload. […]
Briefly, pre-chilled 70% ACN (extraction buffer) was added to the PBMC pellets for extraction. […] was injected onto the LCMS (Luna C18 (2) column, Thermo Scientific Q Exactive Hybrid Quadrupole Orbitrap) and resulting masses assessed. […]

[4] abbreviates: linker/payloads as anti-VISTA conjugates.

With `C[C@]12C=CC(=O)C=C1CC[C@@H]1[C@@H]2[C@@H](O)C[C@@]2(C)[C@H]1C[C@H]1O[C@@H](c3ccc(CC4CC5(C4)CC(NC(=O)[C@H](CCC(=O)O)NC(=O)CNC(=O)CBr)C5)cc3)O[C@]12C(=O)CO` (stereo partly drawn) [INX V, (S)-4-(2-(2-bromoacetamido)acetamido)-5-((6-(4-((6aR,6bS,7S,8aS,8bS,10R,11aR,12aS,12bS)-7-hydroxy-8b-(2-hydroxyacetyl)-6a,8a-dimethyl-4-oxo-2,4,6a,6b,7,8,8a,8b,11a,12,12a,12b-dodecahydro-1H-naphtho[2′,1′:4,5]indeno[1,2-d][1,3]dioxol-10-yl)benzyl)spiro[3.3]heptan-2-yl)amino)-5-oxopentanoic acid], the “preventing ex vivo induction of TNFα and IL-6 in PRM” value in series [1] (Experiment 9: linker payloads as conjugates, 7 days post 0.2 mg/Kg of GC payload, supernatant 24h) is reported as “remarkable long-term potency in controlling cytokine responses”. Also, in series [1] (setting [4]), the “controlling cytokine response in PRM when dosed 14 days early (conclusions)” value is listed as “significant potency in controlling cytokine response in PRM when dosed 14 days early”; the “potency in PRM cytokine model when dosed 7 days early (conclusions)” value was “remarkably more potent than payloads INX P and INX R when dosed 7 days early”. Moreover, in series [2], the “potency of conjugated linker payloads over INX J (conclusions)” value is reported as “enhanced potency”. In addition, in series [3], the “released payload relative to INX P / INX231P (ng/ng)” value worked out at 235 x.
